Experiments:
4T1-luc cells = experiment: 4T1-based intraductal model for triple-negative breast cancer: metastases; assay type: in vivo, BALB/c mice; conditions: oral in Medigel, 100 mg/kg three times per day; 6 w p.i.; compared to DMSO
Experimental: Intraductal inoculations were performed in the third mammary gland pair of lactating female mice. In order to become lactating, 8-w-old female BALB/c mice were mated with male BALB/c mice of the same age and pups were weaned 12-14 d after delivery. One hour after weaning, lactating females received inhalation anesthesia using a mixture of oxygen and isoflurane (2-3%) and were subsequently inoculated through the mammary teat canal using a 32-gauge blunt needle with 5×10^4 4T1-luc cells suspended in a 100 μl mixture of PBS and Matrigel® (1:10; Corning, Bedford, MA, USA). All necessary materials for inoculation were pre-cooled to avoid Matrigel® coagulation. […]
Compounds were dissolved in DMSO. […] The amount of Medigel given to the mice was weekly determined and depended on the mean mouse body weight and consumption. […]
Body weight and body temperature were measured every day during the first week p.i., and once a week during the following 5 weeks (i.e. up to 6 w p.i.) using a digital weighing scale and a rectal temperature probe, respectively. As a measurement of primary tumor growth, primary tumor volumes were weekly monitored using a digital caliper and 4T1-luc-derived bioluminescence in primary tumors was monitored at 1, 3 and 6 w p.i. using the IVIS lumina III system (PerkinElmer, Zaventem, Belgium). […]

[1] = test system: 4T1 primary tumors and target organs for metastasis; experiment: 4T1-based intraductal model: histology and immunohistological stainings; assay type: in vivo, BALB/c mice; conditions: for CD163 staining (tumor-associated macrophages) / CD11b staining (amounts of myeloid cells) / FAP-α staining / Ly6G staining: primary tumor tissue
Experimental: Isolated tissue of primary tumors, axillary lymph nodes, lungs and livers was fixed in buffered 3.5% formaldehyde for 24 h at room temperature (RT) and embedded in paraffin wax. Sections of 5 μm were deparaffinized, hydrated and stained with hematoxylin and eosin (H&E). To allow analysis, sections were dehydrated and mounted.
For Masson's trichrome staining, 3-5 μm thick sections were deparaffinized, hydrated and incubated ON in Bouin's solution to improve staining quality. The following day, slides were washed in distilled H2O (dH2O) and subsequently submerged 3 times in Biebrich scarlet-acid fuchsin solution, washed again in dH2O and incubated for 20 min in phosphomolybdic-phosphotungstic acid solution. Following the incubation in phosphomolybdic-phosphotungstic acid solution, slides were not rinsed, but immediately incubated in aniline blue solution for 8 min. After a final washing step with dH2O, slides were incubated in 1% acetic acid solution for 8 min. Sections were then quickly dehydrated through 94% ethyl alcohol, absolute alcohol to remove Biebrich scarlet-acid fuchsin staining and xylene to clear the slide before mounting with Tissue-Tek glass mounting medium. The staining visualizes collagen in blue, nuclei in dark red, cytoplasm in red/pink. Quantification of positive staining was established using color deconvolution (for Masson's trichrome staining) followed by automatic counting in ImageJ.
For immunohistochemical staining, antigen retrieval was performed on 3-5 μm thick deparaffinized sections with citrate buffer (10 mM tri-sodium citrate (Santa Cruz Biotechnology, Heidelberg, Germany) for α-SMA, CD11 b, Ly6G, and CD163), pH 6 or with Tris-EDTA buffer [pH 9, 10 mM Tris, 1 mM EDTA (Thermo Fisher Scientific) for PDPN and FAP-α) at 95° C. for 30 min using a pressurized Decloaking Chamber NxGen (Biocare Medical, CA, USA). The slides were cooled down to RT for 30 min and subsequently incubated on an orbital shaker at 20 rpm in a closed microscope box with tris-buffered saline (TBS, Biocare Medical)-wetted tissue paper for all blocking, rinsing (between every incubation step with TBS, 3 times for 2 min at RT) and staining steps. To block endogenous peroxidase activity, slides were first treated with 3% H2O2 in methanol for 10 min. To block non-specific binding sites, the slides were subsequently treated with serum-free protein block (Dako, Heverlee, Belgium) for 10 min.
The slides were then stained with primary antibodies diluted in Antibody Diluent (Dako) for 1 h at RT followed by incubation with secondary antibody for 30 min at RT. The used primary antibodies and dilutions were: anti-α-SMA (1:2000, clone EPR5368, Abcam, Cambridge, UK), anti-PDPN (1:100, clone PMab-1, Abcam), anti-FAP-α (1:100, polyclonal, Abcam), anti-CD11b (1:4000, clone EPR1344, Abcam), anti-Ly6G (1:1000, clone 1A8, Biolegend, CA, USA), anti-CD163 (1:500, clone EPR19518, Abcam). The used secondary antibodies were Rat-on-Mouse HRP-Polymer (Biocare Medical) for PDPN and Ly6G, and ready to-use Dako EnVision+ Rabbit for α-SMA, FAP-α, CD11b, and CD163. For visualization of HRP-positive staining, slides were treated with a 3,3′-diaminobenzidine (DAB)-containing buffer (Dako) for 10 min at RT. Counterstaining with hematoxylin was applied for 5 min at RT, followed by dehydration and mounting of the slides with Tissue-Tek glass mounting medium. Quantification of positive staining was established using color deconvolution (for DAB and hematoxylin counterstaining) followed by automatic counting in ImageJ.

[2] = compared to DMSO treatment, data not shown
[3] = primary tumor, compared to DMSO
[4] = primary tumors, compared to DMSO

| Structure (SMILES) | metastatic burden in lung, liver and axillary lymph node metastases (ex-vivo bioluminescence) (4T1-luc cells) | size of lung and liver metastases (H&E) [1, 2] | Masson's trichrome staining (collagen deposition) ([1]; liver tissue, compared to DMSO) | PDPN staining ([1]; liver tissue, compared to DMSO) | α-SMA staining (CAFs) ([1]; liver tissue, compared to DMSO) | CD163 staining (tumor-associated macrophages) [1] | CD11b staining (amounts of myeloid cells) ([1]; compared to DMSO) | FAP-α staining ([1]; compared to DMSO) | Ly6G staining ([1]; compared to DMSO) | Masson's trichrome staining (collagen deposition) [1, 3] | PDPN staining ([1]; primary tumors, P<0.001) | α-SMA staining (amount of CAFs) [1, 4] | size of axillary lymph node metastases (H&E) [1, 2] |
| --- | --- | --- | --- | --- | --- | --- | --- | --- | --- | --- | --- | --- | --- |
| COc1cc(C(=O)/C=C/c2ccc(F)cc2)cc(OC)c1OC [Compound A1, 3-(4-Fluorophenyl)-1-(3,4,5-trimethoxyphenyl)prop2-en-1-one] | overall reduction | Smaller | significant reduction | significantly decreased | significant reduction | significantly decreased | significantly decreased | significantly decreased | reduction | significantly decreased | significantly decreased | significantly decreased | – |
| COc1cc2oc(-c3ccc(F)cc3)cc(=O)c2c(OC)c1OC [Compound B1, 2-(4-Fluorophenyl)-5,6,7-trimethoxy-4H-chromen-4-one] | overall reduction | – | significant reduction | significantly decreased | significant reduction | significantly decreased | significantly decreased | significantly decreased | reduction | significantly decreased | significantly decreased | significantly decreased | smaller |

Source: patent publication US20260191817A1, “FIBROBLAST MODULATORS IN STROMA-RICH TUMORS” (UNIVERSITEIT GENT, priority 2022, published 2026)
